≈ marks a conversion by molar mass, not a printed value.
Experiments:
Bel-7402 = experiment: Antiproliferative activity against human Bel-7402 cells assessed as cell growth inhibition; type: functional, cell-based
NCI-H2228 = experiment: Antiproliferative activity against human NCI-H2228 cells assessed as cell growth inhibition; type: functional, cell-based
HOS = experiment: Antiproliferative activity against human HOS cells assessed as cell growth inhibition; type: functional, cell-based
AGS = experiment: Antiproliferative activity against human AGS cells assessed as cell growth inhibition; type: functional, cell-based
[1] = target: UDP-glucuronosyltransferase 1A6 (Homo sapiens, UniProt P19224); experiment: Binding affinity to UGT1A6 (unknown origin) assessed as inhibition constant
Sequence of UDP-glucuronosyltransferase 1A6 (P19224 whole entry): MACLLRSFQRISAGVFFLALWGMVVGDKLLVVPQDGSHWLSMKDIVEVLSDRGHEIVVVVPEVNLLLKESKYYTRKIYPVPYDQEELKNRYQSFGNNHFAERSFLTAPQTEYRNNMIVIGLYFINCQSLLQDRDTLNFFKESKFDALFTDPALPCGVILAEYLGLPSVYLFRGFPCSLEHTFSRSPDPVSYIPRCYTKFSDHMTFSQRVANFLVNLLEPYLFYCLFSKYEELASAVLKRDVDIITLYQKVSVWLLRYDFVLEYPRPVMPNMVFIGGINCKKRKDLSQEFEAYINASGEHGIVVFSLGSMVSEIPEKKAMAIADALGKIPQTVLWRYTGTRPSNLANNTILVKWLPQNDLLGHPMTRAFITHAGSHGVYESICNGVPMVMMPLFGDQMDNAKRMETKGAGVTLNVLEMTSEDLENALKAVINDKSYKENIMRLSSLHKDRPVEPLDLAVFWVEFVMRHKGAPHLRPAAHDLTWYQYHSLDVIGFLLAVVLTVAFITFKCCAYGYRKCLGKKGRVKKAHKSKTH

SCC-38 = experiment: Antiproliferative activity against human SCC-38 cells assessed as cell growth inhibition; type: functional, cell-based
NSCLC = experiment: Antiproliferative activity against human NSCLC cells assessed as cell growth inhibition; type: functional, cell-based
Cytochrome P450 2C11 [2] = target: T1, Cytochrome P450 2C11 (Rattus norvegicus, UniProt P08683); experiment: Inhibition of rat Cyp2c11; type: ADME
T1 sequence (P08683 whole entry): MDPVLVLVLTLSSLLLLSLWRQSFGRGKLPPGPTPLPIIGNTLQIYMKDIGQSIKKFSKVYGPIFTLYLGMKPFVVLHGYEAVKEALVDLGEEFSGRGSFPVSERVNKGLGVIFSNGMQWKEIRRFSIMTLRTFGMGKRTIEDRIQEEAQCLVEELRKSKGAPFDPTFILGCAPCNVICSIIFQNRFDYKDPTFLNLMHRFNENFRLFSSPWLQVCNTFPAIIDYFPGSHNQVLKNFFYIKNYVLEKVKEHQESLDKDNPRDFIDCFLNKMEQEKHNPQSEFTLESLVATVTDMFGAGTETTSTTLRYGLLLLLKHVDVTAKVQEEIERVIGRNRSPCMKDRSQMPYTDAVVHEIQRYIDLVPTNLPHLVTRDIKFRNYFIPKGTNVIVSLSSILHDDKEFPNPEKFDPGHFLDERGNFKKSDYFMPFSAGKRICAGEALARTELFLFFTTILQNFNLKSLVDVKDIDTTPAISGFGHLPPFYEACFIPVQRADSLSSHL

[3] = Antiproliferative activity against human SPCA1 cells assessed as cell growth inhibition; type: functional, cell-based
[4] = Antiproliferative activity against human Renal cancer tumor cell line assessed as cell growth inhibition; type: functional, cell-based
[5] = Antiproliferative activity against human MM1.R cells assessed as cell growth inhibition; type: functional, cell-based; conditions: MM.1R
HepG2 = experiment: Antiproliferative activity against human HepG2 cells assessed as cell growth inhibition; type: functional, cell-based
MCF7 = experiment: Antiproliferative activity against human MCF7 cells assessed as cell growth inhibition; type: functional, cell-based
[6] = Antiproliferative activity against human YCC-2 cells assessed as cell growth inhibition; type: functional, cell-based
Mus musculus = experiment: Antiinflammatory activity in po dosed asthmatic mouse model; type: functional
RPMI-8226 [7] = experiment: Antiproliferative activity against bortezomib resistant human RPMI-8226 cells assessed as cell growth inhibition; type: functional, cell-based
SAOS-2 = experiment: Antiproliferative activity against human SAOS-2 cells assessed as cell growth inhibition; type: functional, cell-based
RPMI-8226 [8] = experiment: Antiproliferative activity against doxorubicin resistant human RPMI-8226 cells assessed as cell growth inhibition; type: functional, cell-based
LNCaP = experiment: Antiproliferative activity against human LNCaP cells assessed as cell growth inhibition; type: functional, cell-based
RCC4 = experiment: Antiproliferative activity against human RCC4 cells assessed as cell growth inhibition; type: functional, cell-based
Cytochrome P450 1A2 [9] = target: T2, Cytochrome P450 1A2 (Rattus norvegicus, UniProt P04799); experiment: Binding affinity to rat CYP1A2
T2 sequence (P04799 whole entry): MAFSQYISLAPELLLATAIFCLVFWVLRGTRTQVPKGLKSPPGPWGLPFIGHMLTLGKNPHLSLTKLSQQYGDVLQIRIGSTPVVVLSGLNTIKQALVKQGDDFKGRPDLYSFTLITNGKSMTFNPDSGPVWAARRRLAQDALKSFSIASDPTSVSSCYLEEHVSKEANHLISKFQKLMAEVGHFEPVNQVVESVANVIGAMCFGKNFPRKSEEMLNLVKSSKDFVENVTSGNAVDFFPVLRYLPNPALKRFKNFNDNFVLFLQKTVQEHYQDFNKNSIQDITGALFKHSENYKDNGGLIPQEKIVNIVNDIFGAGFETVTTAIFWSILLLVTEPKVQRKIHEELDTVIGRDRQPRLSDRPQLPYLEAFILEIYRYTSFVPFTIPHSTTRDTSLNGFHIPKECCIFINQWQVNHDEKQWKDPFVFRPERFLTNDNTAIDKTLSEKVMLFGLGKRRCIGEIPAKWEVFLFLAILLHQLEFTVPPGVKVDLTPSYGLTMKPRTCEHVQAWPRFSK

[10] = Antiproliferative activity against human KU-7 cells assessed as cell growth inhibition; type: functional, cell-based; conditions: KU7
[11] = Antiproliferative activity against human KATO III stomach cancer cell line assessed as cell growth inhibition; type: functional, cell-based
A549 = experiment: Antiproliferative activity against human A549 cells assessed as cell growth inhibition; type: functional, cell-based
SK-MEL-28 = experiment: Antiproliferative activity against human SK-MEL-28 cells assessed as cell growth inhibition; type: functional, cell-based
[12] = Toxicity in wild-type Zebrafish embryos measured after 72 hrs; set-up: species or system Danio rerio
KBM5 [13] = experiment: Antiproliferative activity against human KBM5 cells expressing Bcr-Abl harboring T315I mutant assessed as cell growth inhibition; type: functional, cell-based
NCI-H1299 = experiment: Antiproliferative activity against human NCI-H1299 cells assessed as cell growth inhibition; type: functional, cell-based
NCI-H1975 [14] = experiment: Antiproliferative activity against gefitinib-resistant human NCI-H1975 cells assessed as cell growth inhibition; type: functional, cell-based
HeLa = experiment: Antiproliferative activity against human HeLa cells assessed as cell growth inhibition; type: functional, cell-based
[15] = Antiproliferative activity against human U373 MG cells assessed as cell growth inhibition; type: functional, cell-based, U-373MG ATCC
K562 = experiment: Antiproliferative activity against human K562 cells assessed as cell growth inhibition; type: functional, cell-based
[16] = Toxicity in wild-type Zebrafish embryos assessed as lethal effect; set-up: species or system Danio rerio; conditions: in vivo
C3A = experiment: Antiproliferative activity against human C3A cells assessed as cell growth inhibition; type: functional, cell-based
A2780 = experiment: Antiproliferative activity against human A2780 cells assessed as cell growth inhibition; type: functional, cell-based
U2OS = experiment: Antiproliferative activity against human U2OS cells assessed as cell growth inhibition; type: functional, cell-based
MKN-28 = experiment: Antiproliferative activity against human MKN-28 cells assessed as cell growth inhibition; type: functional, cell-based
[17] = Antiproliferative activity against human GLC-82 cells assessed as cell growth inhibition; type: functional, cell-based; conditions: GLC82
[18] = Antiproliferative activity against human Nasopharyngeal carcinoma cell line assessed as cell growth inhibition; type: functional, cell-based
NCI-H1650 = experiment: Antiproliferative activity against human NCI-H1650 cells assessed as cell growth inhibition; type: functional, cell-based
U-251 = experiment: Antiproliferative activity against human U-251MG cells assessed as cell growth inhibition; type: functional, cell-based
LP-1 = experiment: Antiproliferative activity against human LP-1 cells assessed as cell growth inhibition; type: functional, cell-based
NCI-H460 = experiment: Antiproliferative activity against human NCI-H460 cells assessed as cell growth inhibition; type: functional, cell-based
SK-OV-3 = experiment: Antiproliferative activity against human SK-OV-3 cells assessed as cell growth inhibition; type: functional, cell-based
Huh-7 = experiment: Antiproliferative activity against human Huh-7 cells assessed as cell growth inhibition; type: functional, cell-based
NCI-H929 = experiment: Antiproliferative activity against human NCI-H929 cells assessed as cell growth inhibition; type: functional, cell-based
[19] = Toxicity in wild-type Zebrafish embryos measured after 48 hrs; set-up: species or system Danio rerio
MKN-45 = experiment: Antiproliferative activity against human MKN-45 cells assessed as cell growth inhibition; type: functional, cell-based
U-937 = experiment: Antiproliferative activity against human U-937 cells assessed as cell growth inhibition; type: functional, cell-based
[20] = target: UDP-glucuronosyltransferase 2B7 (Homo sapiens, UniProt P16662); experiment: Binding affinity to UGT2B7 (unknown origin) assessed as inhibition constant
Sequence of UDP-glucuronosyltransferase 2B7 (P16662 whole entry): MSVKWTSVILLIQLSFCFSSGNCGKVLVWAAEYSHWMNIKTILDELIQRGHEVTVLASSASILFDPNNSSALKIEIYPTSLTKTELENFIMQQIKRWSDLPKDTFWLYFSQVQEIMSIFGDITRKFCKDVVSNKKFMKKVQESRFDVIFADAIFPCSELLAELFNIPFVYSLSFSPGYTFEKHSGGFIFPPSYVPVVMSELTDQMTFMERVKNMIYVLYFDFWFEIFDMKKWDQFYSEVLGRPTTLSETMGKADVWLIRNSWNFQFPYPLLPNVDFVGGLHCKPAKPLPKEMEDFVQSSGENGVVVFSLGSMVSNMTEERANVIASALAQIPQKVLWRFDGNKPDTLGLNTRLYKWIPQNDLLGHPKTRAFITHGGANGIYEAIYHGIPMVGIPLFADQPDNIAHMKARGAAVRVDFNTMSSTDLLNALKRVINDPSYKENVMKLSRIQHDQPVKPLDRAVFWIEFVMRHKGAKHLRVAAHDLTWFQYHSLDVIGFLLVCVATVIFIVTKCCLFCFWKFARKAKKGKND

U-266 = experiment: Antiproliferative activity against human U-266 cells assessed as cell growth inhibition; type: functional, cell-based
[21] = Antiproliferative activity against human 253J-BV cells assessed as cell growth inhibition; type: functional, cell-based
KBM5 [22] = experiment: Antiproliferative activity against human KBM5 cells assessed as cell growth inhibition; type: functional, cell-based
MG-63 = experiment: Antiproliferative activity against human MG-63 cells assessed as cell growth inhibition; type: functional, cell-based
SW13 = experiment: Antiproliferative activity against human SW13 cells assessed as cell growth inhibition; type: functional, cell-based
Rhizoctonia solani = experiment: Antifungal activity against Rhizoctonia solani assessed as inhibition of fungal growth at 10 ug/ml relative to control; type: functional; set-up: scale not given: the % may be the effect or the level left; conditions: dose 10 µg/ml
[23] = Antiproliferative activity against dog CL-1 cells assessed as cell growth inhibition; type: functional, cell-based; conditions: Canis lupus familiaris
Cytochrome P450 3A2 [24] = target: T3, Cytochrome P450 3A2 (Rattus norvegicus, UniProt P05183); experiment: Inhibition of rat CYP3A2
T3 sequence (P05183 whole entry): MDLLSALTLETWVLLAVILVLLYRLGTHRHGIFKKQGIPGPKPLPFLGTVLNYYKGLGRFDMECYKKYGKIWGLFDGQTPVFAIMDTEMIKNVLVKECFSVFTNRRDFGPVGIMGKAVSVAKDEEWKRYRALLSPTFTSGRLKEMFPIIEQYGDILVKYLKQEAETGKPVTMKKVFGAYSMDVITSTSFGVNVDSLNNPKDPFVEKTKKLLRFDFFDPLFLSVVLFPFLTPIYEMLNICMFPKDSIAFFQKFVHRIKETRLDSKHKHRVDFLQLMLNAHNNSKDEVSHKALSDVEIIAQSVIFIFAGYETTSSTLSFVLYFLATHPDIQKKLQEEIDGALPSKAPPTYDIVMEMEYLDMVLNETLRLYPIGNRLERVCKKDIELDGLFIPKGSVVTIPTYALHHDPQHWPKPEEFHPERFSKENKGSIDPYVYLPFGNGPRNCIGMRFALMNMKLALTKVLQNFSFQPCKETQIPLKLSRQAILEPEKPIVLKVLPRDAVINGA

Kasumi 1 = experiment: Antiproliferative activity against human Kasumi 1 cells assessed as cell growth inhibition; type: functional, cell-based
Staphylococcus aureus = experiment: Antibacterial activity against Staphylococcus aureus assessed as inhibition of bacterial growth; type: functional
Cytochrome P450 1A2 [25] = target: T2, Cytochrome P450 1A2; experiment: Inhibition of rat CYP1A2
Cytochrome P450 3A2 [26] = target: T3, Cytochrome P450 3A2; experiment: Binding affinity to rat CYP3A2
SCC-4 = experiment: Antiproliferative activity against human SCC-4 cells assessed as cell growth inhibition; type: functional, cell-based
[27] = Antiproliferative activity against human 95-D cells assessed as cell growth inhibition; type: functional, cell-based
MDA-MB-231 = experiment: Antiproliferative activity against human MDA-MB-231 cells assessed as cell growth inhibition; type: functional, cell-based
Erysiphales [28] = experiment: Antifungal activity against powdery mildew assessed as preventive effects at 100 ug/ml relative to control; type: functional; conditions: dose 100 µg/ml
Erysiphales [29] = experiment: Antifungal activity against powdery mildew assessed as curative effects at 100 ug/ml relative to control; type: functional; conditions: dose 100 µg/ml
UMSCC1 = experiment: Antiproliferative activity against human UMSCC1 cells assessed as cell growth inhibition; type: functional, cell-based
Cytochrome P450 2C11 [30] = target: T1, Cytochrome P450 2C11; experiment: Binding affinity to rat Cyp2c11; type: ADME
RPMI-8226 [31] = experiment: Antiproliferative activity against human RPMI-8226 cells assessed as cell growth inhibition; type: functional, cell-based
[32] = Antiproliferative activity against human SKNO-1 cells assessed as cell growth inhibition; type: functional, cell-based
MM1.S = experiment: Antiproliferative activity against human MM1.S cells assessed as cell growth inhibition; type: functional, cell-based
NCI-H1975 [33] = experiment: Antiproliferative activity against human NCI-H1975 cells assessed as cell growth inhibition; type: functional, cell-based
PC-3 = experiment: Antiproliferative activity against human PC-3 cells assessed as cell growth inhibition; type: functional, cell-based
DU-145 = experiment: Antiproliferative activity against human DU-145 cells assessed as cell growth inhibition; type: functional, cell-based
HCC827 = experiment: Antiproliferative activity against human HCC827 cells assessed as cell growth inhibition; type: functional, cell-based
[34] = test system: Colletotrichum gloeosporioides; experiment: Antifungal activity against Glomerella cingulata assessed as inhibition of fungal growth at 10 ug/ml relative to control; type: functional; set-up: scale not given: the % may be the effect or the level left; conditions: dose 10 µg/ml

COC(=O)[C@]1(C)CC[C@]2(C)CC[C@]3(C)C4=CC(c5cn(C)c6cc(Cl)ccc56)c5c(cc(OC)c(OC)c5C)[C@]4(C)CC[C@@]3(C)[C@@H]2C1 (stereo partly drawn)
IC50 (Bel-7402): 0.01 µM

COC(=O)[C@]1(C)CC[C@]2(C)CC[C@]3(C)C4=CC(c5c[nH]c6cc(C)ccc56)c5c(cc(OC)c(OC)c5C)[C@]4(C)CC[C@@]3(C)[C@@H]2C1 (stereo partly drawn)
IC50 (Bel-7402): 0.02 µM

CC1=C(O)C(=O)C=C2C1=CC=C1[C@@]2(C)CC[C@@]2(C)[C@@H]3C[C@](C)(C(=O)O)CC[C@]3(C)CC[C@]12C [CELASTROL]
IC50 (NCI-H2228): 1.95 µM | IC50 (HOS): 2.55 µM | IC50 (AGS): 0.25 µM | Ki [1]: 0.49 µM | IC50 (SCC-38): 1.7 µM | IC50 (NSCLC): 1.48 µM | IC50 (Cytochrome P450 2C11 [2]): 10.2 µM | IC50 [3]: 1.8 µM | IC50 [4]: 4.4 µM | IC50 [5]: 0.52 µM | IC50 (HepG2): 2.4 µM | IC50 (MCF7): 1.58 µM | IC50 [6]: 0.5 µM | LD50 (Mus musculus): 20.5 mg/kg | IC50 (RPMI-8226 [7]): 0.73 µM | IC50 (SAOS-2): 1.05 µM | IC50 (RPMI-8226 [8]): 0.52 µM | IC50 (LNCaP): 1.76 µM | IC50 (RCC4): 1.88 µM | Ki (Cytochrome P450 1A2 [9]): 39.2 µM | IC50 [10]: 1.13 µM | IC50 [11]: 0.54 µM | IC50 (A549): 1.99 µM | IC50 (SK-MEL-28): 1.72 µM | EC50 at 72 h [12]: 0.7 µM | IC50 (KBM5 [13]): 0.52 µM | IC50 (NCI-H1299): 1.49 µM | IC50 (NCI-H1975 [14]): 0.6 µM | IC50 (HeLa): 1.9 µM | IC50 [15]: 2 µM | IC50 (K562): 0.4 µM | LC50 [16]: 1.4 µM | IC50 (C3A): 3.6 µM | IC50 (A2780): 2.11 µM | IC50 (U2OS): 2.11 µM | IC50 (MKN-28): 2.3 µM | IC50 [17]: 1.08 µM | IC50 [18]: 1 µM | IC50 (NCI-H1650): 0.79 µM | IC50 (U-251): 0.69 µM | IC50 (LP-1): 0.88 µM | IC50 (NCI-H460): 2.2 µM | IC50 (SK-OV-3): 2.29 µM | IC50 (Huh-7): 4.7 µM | IC50 (NCI-H929): 0.31 µM | EC50 at 48 h [19]: 0.9 µM | IC50 (MKN-45): 3.4 µM | IC50 (U-937): 2 µM | Ki [20]: 0.045 µM | IC50 (U-266): 0.47 µM | IC50 [21]: 0.93 µM | IC50 (KBM5 [22]): 0.5 µM | IC50 (MG-63): 1.97 µM | IC50 (SW13): 0.1 µM | Activity (Rhizoctonia solani): 62.6% | IC50 [23]: 1.54 µM | IC50 (Cytochrome P450 3A2 [24]): 23.2 µM | IC50 (Kasumi 1): 2.2 µM | MIC (Staphylococcus aureus): 0.5 µg/mL (≈ 1.11 µM) | IC50 (Cytochrome P450 1A2 [25]): 52.8 µM | Ki (Cytochrome P450 3A2 [26]): 14.2 µM | IC50 (SCC-4): 2.8 µM | IC50 [27]: 1.8 µM | IC50 (MDA-MB-231): 0.67 µM | Activity (Erysiphales [28]): 80.5% | Activity (Erysiphales [29]): 45.4% | IC50 (UMSCC1): 0.76 µM | Ki (Cytochrome P450 2C11 [30]): 7.05 µM | IC50 (RPMI-8226 [31]): 0.52 µM | IC50 [32]: 1.3 µM | IC50 (MM1.S): 0.63 µM | IC50 (NCI-H1975 [33]): 1.66 µM | IC50 (PC-3): 1.52 µM | IC50 (DU-145): 1.48 µM | IC50 (HCC827): 1.3 µM | Activity [34]: 62.6%

Source: ChEMBL document CHEMBL5233221, “Celastrol: Progresses in structure-modifications, structure-activity relationships, pharmacology and toxicology” (Eur J Med Chem, 2020)
